Data reported in patent US20230067929A1, “HETEROCYCLIC DERIVATIVES, PHARMACEUTICAL COMPOSITIONS AND THEIR USE IN THE TREATMENT, AMELIORATION OR PREVENTION OF CANCER” (Tolremo Therapeutics AG, priority 2018, published 2023).

Each compound was assayed on A375 cells (assay: A375 cell immunofluorescence assay (with 1 μM S1152 and 0.5 μM S1008), EC50). Conditions: 1 μM S1152 + 0.5 μM S1008, one day, ratio FL2/FL3 staining (sc-365823 antibody).
Assay type: cell-based
Experimental: One thousand four hundred A375 cells were seeded in each well of a 384 well microplate. One day later they were treated with 1 μM S1152 (Selleckchem) in dimethyl sulfoxide, 0.5 μM S1008 (Selleckchem) and dose ranges of invention compounds for one day in Dulbecco's Modified Eagle's Medium supplemented with 10% fetal calf serum and 2 mM (2S)-2-amino-4-carbamoylbutanoic acid. Wells were incubated with 4% polyoxymethylene (Sigma Aldrich 158127) at ambient temperature. After ten minutes, polyoxymethylene was replaced with phosphate-buffered saline. After one minute phosphate-buffered saline was replaced with 0.2% polyethylene glycol octylphenyl ether in phosphate-buffered saline. After ten minutes at ambient temperature 0.2% polyethylene glycol octylphenyl ether in phosphate-buffered saline was replaced with 1% aminoethanoic acid in phosphate-buffered saline. […] After one hour at 37° C., the solution was replaced with phosphate-buffered saline twice. Phosphate-buffered saline was replaced with 2 μg/ml A-11029 (Invitrogen) in 0.05% polyoxyethylene (20) sorbitan monolaurate in phosphate-buffered saline. […] After one hour at ambient temperature in the dark, signal in wells was measured with a Acumen Cellista. 3,8-Diamino-5-[3-(diethylmethylammonio)propyl]-6-phenylphenanthridinium diiodide-positive objects were defined in FL3 (565-600 nm) with a perimeter between 50-800 μm and a total intensity of 10000-1000000 FLU. Signal in FL2 (500-530 nm) was measured in defined objects. A normalized ratio of total ln FL2 over total ln FL3 staining was log transformed. A non-linear regression (variable slope, 4 parameters) was used to calculate EC50 values using GraphPad Prism (Version 7.0d).

Structure (SMILES) | EC50
CCC(=O)N1CCCC(c2nc(Nc3cccc(F)c3)cc(-c3ccccc3)n2)C1 (stereo not drawn) | 1 to 10 µM
CCC(=O)N1CCCC(c2nc(Nc3cccc(F)c3)cc(-c3ccccn3)n2)C1 (stereo not drawn) | > 10 µM
CCC(=O)N1CCCC(c2nc(Nc3cccc(F)c3)cc(-c3sc(CC)nc3C)n2)C1 (stereo not drawn) | > 10 µM
CCC(=O)N1CCCC(c2nc(Nc3cccc(F)c3)cc(-c3cnn(C(C)C)c3)n2)C1 (stereo not drawn) | > 10 µM
CCC(=O)N1CCCC(c2nc(Nc3cccc(F)c3)cc(-c3ccccc3C(=O)NC)n2)C1 (stereo not drawn) | > 10 µM
COc1cncc(-c2cc(Nc3cccc(Cl)c3)nc(C3CCCN(C(C)=O)C3)n2)c1 (stereo not drawn) | < 1 µM
COc1cncc(-c2cc(Nc3cccc(C)c3)nc(C3CCCN(C(C)=O)C3)n2)c1 (stereo not drawn) | < 1 µM
CC(=O)N1CCCC(c2nc(Nc3ccc4c(c3)CCC4)cc(-c3cccnc3)n2)C1 (stereo not drawn) | > 10 µM
CCc1cncc(-c2cc(Nc3cccc(F)c3)nc(C3CCCN(C(C)=O)C3)n2)c1 (stereo not drawn) | < 1 µM
CC(=O)N1CCCC(c2nc(Nc3cccc(F)c3)cc(-c3ccncc3)n2)C1 (stereo not drawn) | 1 to 10 µM
CC(=O)N1CCCC(c2nc(Nc3cccc(F)c3)cc(-c3cnccc3C)n2)C1 (stereo not drawn) | 1 to 10 µM
CC(=O)N1CCCC(c2nc(Nc3cccc(F)c3)c(C)c(-c3cccnc3)n2)C1 (stereo not drawn) | > 10 µM
COc1ccc(-c2cc(Nc3cccc(F)c3)nc(C3CCCN(C(C)=O)C3)n2)cc1 (stereo not drawn) | 1 to 10 µM
COc1cncc(-c2cc(Nc3ccc(Cl)cc3)nc(C3CCCN(C(C)=O)C3)n2)c1 (stereo not drawn) | 1 to 10 µM
CNC(=O)c1ccc(-c2cc(Nc3cccc(F)c3)nc(C3CCCN(C(C)=O)C3)n2)cc1 (stereo not drawn) | 1 to 10 µM
CC(=O)N1CCCC(c2nc(Nc3cccc(F)c3)cc(-c3cccs3)n2)C1 (stereo not drawn) | 1 to 10 µM
COc1csc(-c2cc(Nc3cccc(F)c3)nc(C3CCCN(C(C)=O)C3)n2)c1 (stereo not drawn) | < 1 µM
COc1cncc(-c2cc(Nc3cccc(OCCOCCOCCNC(C)=O)c3)nc(C3CCCN(C(C)=O)C3)n2)c1 (stereo not drawn) | 1 to 10 µM
CC(=O)N1CCCC(c2nc(Nc3cccc(F)c3)cc(-c3ccnnc3)n2)C1 (stereo not drawn) | 1 to 10 µM

Structure (SMILES) | EC50
COc1ccc(Nc2cc(-c3cncc(OC)c3)nc(C3CCCN(C(C)=O)C3)n2)cc1 (stereo not drawn) | 1 to 10 µM
CC(=O)N1CCCC(c2nc(Nc3cccc(F)c3)cc(-c3cnn(CC(F)(F)F)c3)n2)C1 (stereo not drawn) | 1 to 10 µM
CC(=O)N1CCCC(c2nc(Nc3cccc(F)c3)cc(-c3ccc(C)nc3C)n2)C1 (stereo not drawn) | 1 to 10 µM
COc1csc(-c2cc(Nc3cccc(C)c3)nc(C3CCCN(C(C)=O)C3)n2)c1 (stereo not drawn) | < 1 µM
CC(=O)N1CCCC(c2nc(Nc3cccc(C)c3)cc(-c3c(C)noc3C)n2)C1 (stereo not drawn) | 1 to 10 µM
CC(=O)N1CCCC(c2nc(Nc3cccc(C)c3)cc(-c3cncc4[nH]ccc34)n2)C1 (stereo not drawn) | < 1 µM
COC(=O)c1cncc(-c2cc(Nc3cccc(F)c3)nc(C3CCCN(C(C)=O)C3)n2)c1 (stereo not drawn) | > 10 µM
CC(=O)N1CCCC(c2nc(Nc3cccc(C)c3)cc(-c3ccnnc3)n2)C1 (stereo not drawn) | 1 to 10 µM
CC(=O)N1CCCC(c2nc(Nc3cccc(C)c3)cc(-c3cncnc3)n2)C1 (stereo not drawn) | 1 to 10 µM
CC(=O)Nc1cncc(-c2cc(Nc3cccc(F)c3)nc(C3CCCN(C(C)=O)C3)n2)c1 (stereo not drawn) | < 1 µM
CC(=O)N1CCCC(c2nc(Nc3ccccc3)cc(-c3cccnc3)n2)C1 (stereo not drawn) | 1 to 10 µM
CC(=O)N1C[C@H](c2nc(Nc3ccccc3)cc(-c3cncnc3)n2)CC[C@@H]1C | < 1 µM
CC(=O)N1C[C@H](c2nc(Nc3ccccc3)cc(-c3cncc4[nH]ccc34)n2)CC[C@@H]1C | < 1 µM
CNC(=O)c1cncc(-c2cc(Nc3cccc(F)c3)nc(C3CCCN(C(C)=O)C3)n2)c1 (stereo not drawn) | < 1 µM
CCC(=O)N1CCCC(c2nc(Nc3ncccn3)cc(-c3cccnc3)n2)C1 (stereo not drawn) | > 10 µM
CCC(=O)N1CCCC(c2nc(Nc3ccc(F)cc3)cc(-c3cccnc3)n2)C1 (stereo not drawn) | > 10 µM
CCC(=O)N1CCCC(c2nc(Nc3cccc(C(F)(F)F)c3)cc(-c3cccnc3)n2)C1 (stereo not drawn) | > 10 µM
CCC(=O)N1CCCC(c2nc(Nc3cccc(C)c3)cc(-c3cccnc3)n2)C1 (stereo not drawn) | 1 to 10 µM
COc1cncc(-c2cc(Nc3cccc(C(F)F)c3)nc(C3CCCN(C(C)=O)C3)n2)c1 (stereo not drawn) | 1 to 10 µM

The next lines start with the values.

EC50 | Structure (SMILES)
1 to 10 µM | CCC(=O)N1CCCC(c2nc(Nc3cccc(F)c3)cc(-c3cncnc3)n2)C1 (stereo not drawn)
> 10 µM | CCC(=O)N1CCCC(c2nc(Nc3cccc(F)c3)cc(-c3ccc(OC)nc3)n2)C1 (stereo not drawn)
1 to 10 µM | CCC(=O)N1CCCC(c2nc(Nc3cccc(F)c3)cc(-c3ccc(C(F)(F)F)nc3)n2)C1 (stereo not drawn)
> 10 µM | CCC(=O)N1CCCC(c2nc(Cl)cc(Nc3ccccc3F)n2)C1 (stereo not drawn)
1 to 10 µM | CCC(=O)N1CCCC(c2nc(Nc3cccc(F)c3)cc(-c3cccc(O)c3)n2)C1 (stereo not drawn)
> 10 µM | CCC(=O)N1CCCC(c2nc(Nc3ccccc3F)cc(-c3ccncc3)n2)C1 (stereo not drawn)
1 to 10 µM | CCC(=O)N1CCCC(c2nc(Nc3cccc(F)c3)cc(-c3c(C)noc3C)n2)C1 (stereo not drawn)
> 10 µM | CCC(=O)N1CCCC(c2nc(Nc3cccc(F)c3)cc(-c3cnc(OC(C)C)s3)n2)C1 (stereo not drawn)
> 10 µM | CCC(=O)N1CCCC(c2nc(Nc3cccc(F)c3)cc(-c3ccc4ocnc4c3)n2)C1 (stereo not drawn)
> 10 µM | CCC(=O)N1CCCC(c2nc(Nc3cccc(F)c3)cc(-c3cncc4ccccc34)n2)C1 (stereo not drawn)
< 1 µM | CC(=O)N1CCCC(c2nc(Nc3cccc(C)c3)cc(-c3cncc(C)c3)n2)C1 (stereo not drawn)
< 1 µM | CC(=O)N1CCCC(c2nc(Nc3cccc(C)c3)cc(-c3cccnc3)n2)C1 (stereo not drawn)
< 1 µM | CC(=O)N1CCCC(c2nc(Nc3ccc(C)c(C)c3)cc(-c3cccnc3)n2)C1 (stereo not drawn)
> 10 µM | CC(=O)N1CCCC(c2nc(Nc3cccc(F)c3)cc(-c3cncc(C(F)(F)F)c3)n2)C1 (stereo not drawn)
1 to 10 µM | COc1cncc(-c2cc(Nc3ccc(C)c(F)c3)nc(C3CCCN(C(C)=O)C3)n2)c1 (stereo not drawn)
< 1 µM | COc1cncc(-c2cc(Nc3ccccc3)nc(C3CCCN(C(C)=O)C3)n2)c1 (stereo not drawn)
1 to 10 µM | CC(=O)N1CCCC(c2nc(Nc3cccc(F)c3)cc(-c3cncnc3)n2)C1 (stereo not drawn)
< 1 µM | CC(=O)Nc1ccc(-c2cc(Nc3cccc(F)c3)nc(C3CCCN(C(C)=O)C3)n2)cc1 (stereo not drawn)
1 to 10 µM | COc1cccc(-c2cc(Nc3cccc(F)c3)nc(C3CCCN(C(C)=O)C3)n2)c1 (stereo not drawn)
< 1 µM | CC(=O)N1CCCC(c2nc(Nc3cccc(F)c3)cc(-c3cc(C)cs3)n2)C1 (stereo not drawn)
< 1 µM | CC(=O)N1CCCC(c2nc(Nc3cccc(F)c3)cc(-c3scc4c3OCCO4)n2)C1 (stereo not drawn)
1 to 10 µM | CC(=O)N1CCCC(c2nc(Nc3cccc(F)c3)cc(-c3ccoc3)n2)C1 (stereo not drawn)
1 to 10 µM | CC(=O)N1CCCC(c2nc(Nc3cccc(F)c3)cc(-c3sc(C(C)C)nc3C)n2)C1 (stereo not drawn)
1 to 10 µM | CC(=O)N1CCCC(c2nc(Nc3cccc(F)c3)cc(-c3c(C)noc3C)n2)C1 (stereo not drawn)
> 10 µM | COc1cncc(-c2cc(Nc3ccc(OCCOCCOCCNC(C)=O)cc3)nc(C3CCCN(C(C)=O)C3)n2)c1 (stereo not drawn)

EC50 | Structure (SMILES)
> 10 µM | CC(=O)N1CCCC(c2nc(Nc3cccc(F)c3)cc(-c3csc4cnccc34)n2)C1 (stereo not drawn)
1 to 10 µM | CC(=O)N1CCCC(c2nc(Nc3cccc(F)c3)cc(-c3cc(Cl)cs3)n2)C1 (stereo not drawn)
1 to 10 µM | COc1cccc(Nc2cc(-c3cncc(OC)c3)nc(C3CCCN(C(C)=O)C3)n2)c1 (stereo not drawn)
< 1 µM | CC(=O)N1CCCC(c2nc(Nc3cccc(F)c3)cc(-c3cccc4[nH]ccc34)n2)C1 (stereo not drawn)
1 to 10 µM | CC(=O)N1CCCC(c2nc(Nc3cc(F)cc(F)c3)cc(-c3c(C)noc3C)n2)C1 (stereo not drawn)
1 to 10 µM | CC(=O)N1CCCC(c2nc(Nc3cccc(F)c3)cc(-c3ccc(C)nc3)n2)C1 (stereo not drawn)
< 1 µM | CC(=O)N1CCCC(c2nc(Nc3cc(F)cc(F)c3)cc(-c3cccnc3)n2)C1 (stereo not drawn)
1 to 10 µM | CC(=O)N1CCCC(c2nc(Nc3cc(F)cc(F)c3)cc(-c3cncnc3)n2)C1 (stereo not drawn)
1 to 10 µM | CC(=O)N1CCCC(c2nc(Nc3cc(F)cc(F)c3)cc(-c3ccnnc3)n2)C1 (stereo not drawn)
< 1 µM | CC(=O)N1CCCC(c2nc(Nc3cccc(F)c3)cc(-c3cncc(N4CCOCC4)c3)n2)C1 (stereo not drawn)
1 to 10 µM | CC(=O)N1CCCC(c2nc(Nc3ccccc3)cc(-c3cncnc3)n2)C1 (stereo not drawn)
< 1 µM | CC(=O)N1CCCC(c2nc(Nc3ccccc3)cc(-c3cncc4[nH]ccc34)n2)C1 (stereo not drawn)
1 to 10 µM | CC(=O)N1CCCC(c2nc(Nc3cccc(F)c3)cc(-c3cnc4[nH]ccc4c3)n2)C1 (stereo not drawn)
1 to 10 µM | CC(=O)Nc1ccc(-c2cc(Nc3cccc(F)c3)nc(C3CCCN(C(C)=O)C3)n2)cn1 (stereo not drawn)
< 1 µM | COc1cncc(-c2cc(Nc3cccc(Cl)c3)nc([C@@H]3CC[C@H](C)N(C(C)=O)C3)n2)c1
1 to 10 µM | CCC(=O)N1CCCC(c2nc(Nc3ccc(C)cc3)cc(-c3cccnc3)n2)C1 (stereo not drawn)
> 10 µM | CCC(=O)N1CCCC(c2nc(Nc3ccc(OC)nc3)cc(-c3cccnc3)n2)C1 (stereo not drawn)
> 10 µM | CCC(=O)N1CCCC(c2nc(Nc3ccccc3OC)cc(-c3cccnc3)n2)C1 (stereo not drawn)
1 to 10 µM | CCC(=O)N1CCCC(c2nc(Nc3ccc(OC)cc3)cc(-c3cccnc3)n2)C1 (stereo not drawn)
1 to 10 µM | CCC(=O)N1CCCC(c2nc(Nc3ccc(Cl)cc3)cc(-c3cccnc3)n2)C1 (stereo not drawn)
1 to 10 µM | CCc1cccc(Nc2cc(-c3cncc(OC)c3)nc(C3CCCN(C(C)=O)C3)n2)c1 (stereo not drawn)
> 10 µM | COc1cncc(-c2cc(Nc3cccc(-n4cnnc4)c3)nc(C3CCCN(C(C)=O)C3)n2)c1 (stereo not drawn)
1 to 10 µM | CC(=O)N1CCCC(c2nc(Nc3cncc(C)c3)cc(-c3cccnc3)n2)C1 (stereo not drawn)
> 10 µM | CC(=O)N1CCCC(c2nc(Nc3ncccn3)cc(-c3cccnc3)n2)C1 (stereo not drawn)
